Measurements reported in the NIST ThermoML archive (doi:10.1016/j.jct.2015.06.036).
± gives the expanded uncertainty stated by the source.

Assay: xn = mol fraction of the nth substance listed
Conditions: 101 kPa, Liquid; for viscosity: Falling or rolling sphere viscometry; for speed of sound: Sing-around technique in a fixed-path interferometer; for mass density: Vibrating tube method

**Q.** Which results are given for `CCCCn1cc[n+](C)c1.F[B-](F)(F)F` [1-butyl-3-methylimidazolium tetrafluoroborate] + CO?
**A.** viscosity (278.15 K, x1 = 0.0501): 1.07 ± 0.04 mPa·s; viscosity (278.15 K, x1 = 0.0999): 1.7 ± 0.07 mPa·s; viscosity (278.15 K, x1 = 0.1498): 2.36 ± 0.1 mPa·s; viscosity (278.15 K, x1 = 0.2): 3.35 ± 0.14 mPa·s; viscosity (278.15 K, x1 = 0.2999): 6.22 ± 0.25 mPa·s; viscosity (278.15 K, x1 = 0.4008): 11.1 ± 0.5 mPa·s; viscosity (278.15 K, x1 = 0.4995): 20.6 ± 0.8 mPa·s; viscosity (278.15 K, x1 = 0.5999): 35.3 ± 1.4 mPa·s; viscosity (278.15 K, x1 = 0.6991): 60.2 ± 2.5 mPa·s; viscosity (278.15 K, x1 = 0.8006): 108 ± 5 mPa·s; viscosity (278.15 K, x1 = 0.8494): 143 ± 7 mPa·s; viscosity (278.15 K, x1 = 0.9006): 196 ± 11 mPa·s; viscosity (278.15 K, x1 = 0.9501): 264 ± 17 mPa·s; viscosity (278.15 K, x1 = 1): 361 ± 26 mPa·s; speed of sound (278.15 K, x1 = 0.0501): 1239 ± 2 m/s; speed of sound (278.15 K, x1 = 0.0999): 1294 ± 2 m/s; speed of sound (278.15 K, x1 = 0.1498): 1341 ± 2 m/s; speed of sound (278.15 K, x1 = 0.2): 1383 ± 2 m/s; speed of sound (278.15 K, x1 = 0.2999): 1447 ± 2 m/s; speed of sound (278.15 K, x1 = 0.4008): 1493 ± 2 m/s; speed of sound (278.15 K, x1 = 0.4995): 1527 ± 2 m/s; speed of sound (278.15 K, x1 = 0.5999): 1552 ± 2 m/s; speed of sound (278.15 K, x1 = 0.6991): 1573 ± 2 m/s; speed of sound (278.15 K, x1 = 0.8006): 1589 ± 2 m/s; speed of sound (278.15 K, x1 = 0.8494): 1596 ± 2 m/s; speed of sound (278.15 K, x1 = 0.9006): 1603 ± 2 m/s; speed of sound (278.15 K, x1 = 0.9501): 1611 ± 2 m/s; speed of sound (278.15 K, x1 = 1): 1615 ± 2 m/s; mass density (278.15 K, x1 = 0.0501): 893 ± 0.4 kg/m3; mass density (278.15 K, x1 = 0.0999): 954.2 ± 0.3 kg/m3; mass density (278.15 K, x1 = 0.1498): 999.7 ± 0.3 kg/m3; mass density (278.15 K, x1 = 0.2): 1035.5 ± 0.2 kg/m3; mass density (278.15 K, x1 = 0.2999): 1087.2 ± 0.2 kg/m3; mass density (278.15 K, x1 = 0.4008): 1122.5 ± 0.2 kg/m3; mass density (278.15 K, x1 = 0.4995): 1147.9 ± 0.3 kg/m3; mass density (278.15 K, x1 = 0.5999): 1167.9 ± 0.3 kg/m3; mass density (278.15 K, x1 = 0.6991): 1183.3 ± 0.3 kg/m3; mass density (278.15 K, x1 = 0.8006): 1196.4 ± 0.3 kg/m3; mass density (278.15 K, x1 = 0.8494): 1201.6 ± 0.4 kg/m3; mass density (278.15 K, x1 = 0.9006): 1206.9 ± 0.4 kg/m3; mass density (278.15 K, x1 = 0.9501): 1211.4 ± 0.4 kg/m3; mass density (278.15 K, x1 = 1): 1215.9 ± 0.4 kg/m3; viscosity (288.15 K, x1 = 0.0501): 0.905 ± 0.037 mPa·s; viscosity (288.15 K, x1 = 0.0999): 1.4 ± 0.06 mPa·s; viscosity (288.15 K, x1 = 0.1498): 1.91 ± 0.08 mPa·s; viscosity (288.15 K, x1 = 0.2): 2.65 ± 0.11 mPa·s; viscosity (288.15 K, x1 = 0.2999): 4.73 ± 0.19 mPa·s; viscosity (288.15 K, x1 = 0.4008): 8.1 ± 0.33 mPa·s; viscosity (288.15 K, x1 = 0.4995): 14.5 ± 0.6 mPa·s; viscosity (288.15 K, x1 = 0.5999): 23.7 ± 1 mPa·s; viscosity (288.15 K, x1 = 0.6991): 38.2 ± 1.6 mPa·s; viscosity (288.15 K, x1 = 0.8006): 64.8 ± 2.7 mPa·s; viscosity (288.15 K, x1 = 0.8494): 82.5 ± 3.6 mPa·s; viscosity (288.15 K, x1 = 0.9006): 110 ± 5 mPa·s; viscosity (288.15 K, x1 = 0.9501): 143 ± 7 mPa·s; viscosity (288.15 K, x1 = 1): 186 ± 11 mPa·s; speed of sound (288.15 K, x1 = 0.0501): 1209 ± 2 m/s; speed of sound (288.15 K, x1 = 0.0999): 1266 ± 2 m/s; speed of sound (288.15 K, x1 = 0.1498): 1315 ± 2 m/s; speed of sound (288.15 K, x1 = 0.2): 1356 ± 2 m/s; speed of sound (288.15 K, x1 = 0.2999): 1422 ± 2 m/s; speed of sound (288.15 K, x1 = 0.4008): 1468 ± 2 m/s; speed of sound (288.15 K, x1 = 0.4995): 1502 ± 2 m/s; speed of sound (288.15 K, x1 = 0.5999): 1527 ± 2 m/s; speed of sound (288.15 K, x1 = 0.6991): 1548 ± 2 m/s; speed of sound (288.15 K, x1 = 0.8006): 1564 ± 2 m/s; speed of sound (288.15 K, x1 = 0.8494): 1571 ± 2 m/s; speed of sound (288.15 K, x1 = 0.9006): 1578 ± 2 m/s; speed of sound (288.15 K, x1 = 0.9501): 1586 ± 2 m/s; speed of sound (288.15 K, x1 = 1): 1590 ± 2 m/s; mass density (288.15 K, x1 = 0.0501): 884 ± 0.4 kg/m3; mass density (288.15 K, x1 = 0.0999): 945.5 ± 0.3 kg/m3; mass density (288.15 K, x1 = 0.1498): 991.2 ± 0.3 kg/m3; mass density (288.15 K, x1 = 0.2): 1027.2 ± 0.2 kg/m3; mass density (288.15 K, x1 = 0.2999): 1079.1 ± 0.2 kg/m3; mass density (288.15 K, x1 = 0.4008): 1114.6 ± 0.2 kg/m3; mass density (288.15 K, x1 = 0.4995): 1140.2 ± 0.3 kg/m3; mass density (288.15 K, x1 = 0.5999): 1160.3 ± 0.3 kg/m3; mass density (288.15 K, x1 = 0.6991): 1175.9 ± 0.3 kg/m3; mass density (288.15 K, x1 = 0.8006): 1189 ± 0.3 kg/m3; mass density (288.15 K, x1 = 0.8494): 1194.3 ± 0.4 kg/m3; mass density (288.15 K, x1 = 0.9006): 1199.6 ± 0.4 kg/m3; mass density (288.15 K, x1 = 0.9501): 1204 ± 0.4 kg/m3; mass density (288.15 K, x1 = 1): 1208.5 ± 0.4 kg/m3; viscosity (298.15 K, x1 = 0.0501): 0.779 ± 0.032 mPa·s; viscosity (298.15 K, x1 = 0.0999): 1.18 ± 0.05 mPa·s; viscosity (298.15 K, x1 = 0.1498): 1.58 ± 0.06 mPa·s; viscosity (298.15 K, x1 = 0.2): 2.16 ± 0.09 mPa·s; viscosity (298.15 K, x1 = 0.2999): 3.73 ± 0.15 mPa·s; viscosity (298.15 K, x1 = 0.4008): 6.18 ± 0.25 mPa·s; viscosity (298.15 K, x1 = 0.4995): 10.7 ± 0.4 mPa·s; viscosity (298.15 K, x1 = 0.5999): 16.9 ± 0.7 mPa·s; viscosity (298.15 K, x1 = 0.6991): 25.8 ± 1.1 mPa·s; viscosity (298.15 K, x1 = 0.8006): 41.5 ± 1.7 mPa·s; viscosity (298.15 K, x1 = 0.8494): 51.6 ± 2.1 mPa·s; viscosity (298.15 K, x1 = 0.9006): 66.9 ± 2.8 mPa·s; viscosity (298.15 K, x1 = 0.9501): 83.8 ± 3.7 mPa·s; viscosity (298.15 K, x1 = 1): 105 ± 5 mPa·s; speed of sound (298.15 K, x1 = 0.0501): 1179 ± 2 m/s; speed of sound (298.15 K, x1 = 0.0999): 1238 ± 2 m/s; speed of sound (298.15 K, x1 = 0.1498): 1288 ± 2 m/s; speed of sound (298.15 K, x1 = 0.2): 1331 ± 2 m/s; speed of sound (298.15 K, x1 = 0.2999): 1397 ± 2 m/s; speed of sound (298.15 K, x1 = 0.4008): 1443 ± 2 m/s; speed of sound (298.15 K, x1 = 0.4995): 1477 ± 2 m/s
